# From patent publication US12055539B2, “HDAC1/2 activator for promoting and/or accelerating myelination and/or remyelination” (UNIVERSITE DE FRIBOURG, priority 2017, dated 2024)
# “Also recorded” adds a separate entry of the source.
# Legend:
# HDAC1/2 [1] = assay: Immunofluorescence of spinal cord after intrathecal HDAC1/2 inhibitor; format: in vivo, mouse; conditions: single intrathecal injection 10 mg/kg, spinal cord collected after 24 h, vs vehicle
# Method: For immuno fluorescence, adult mice were treated with a single intratechal injection of 10 mg/kg Mocetinostat (HDAC1/2 inhibitor) or its vehicle and their spinal cord was collected 24 h after injection. Mice were killed and perfused with 4% PFA and their spinal cord was processed as described above in Example 8. Primary antibody: EEF1A-pan (Acetyl-Lys41) antibody (rabbit, Assay Biotech, 1:1000, cat. # D12106), CC1 (mouse, 1:200, Calbiochem/Millipore, cat. # OP80).
# HDAC1/2 [2] = assay: Acetyl-lysine immunoprecipitation and LC-MS/MS of sciatic nerves after crush lesion; format: in vivo, mouse; conditions: 10 mg/kg in pelvic cavity after sciatic nerve crush, nerves collected 24 h later, compared to vehicle
# Method: Sciatic nerve crush lesions were carried out in adult mice (3-4 month old) with the following procedure: Isoflurane (3% for induction, 1.5-2% for narcosis during operation) was used for anesthesia. For analgesia, 0.1 mg/kg buprenorphine (Temgesic; Essex Chemie) was administered by i.p. injection 1 h before lesion and 12 hours after the operation. An incision was made at the height of the hip and the sciatic nerve was exposed on one side. The nerve was crushed (5×10 sec with crush forceps: Ref FST 00632-11) and the wound was closed using Histoacryl Tissue Glue (BBraun). After the operation, mice were wrapped in paper towels and placed on a warming pad until recovery from anesthesia.
# For immunoprecipitation (IP), the injured sciatic nerve was collected from the lesion site to around 12 mm distal to the lesion site (region where the nerve splits into the three branches of tibial, sural and common peroneal nerves). After perineurium removal, sciatic nerves were frozen in liquid nitrogen, pulverized with a chilled mortar and pestle, lysed in radiolP assay (RIPA) buffer (10 mM Tris/HCl, pH 7.4, 150 mM NaCl, 50 mM NaF, 100 mM NaVO4, 1 mM EDTA, 0.5% wt/vol sodium deoxycholate, and 0.5% Nonidet P-40) for 15 min on ice, and centrifuged to pellet debris. Supernatants were collected and pre-cleared for 1 h with 30 gl protein A/G PLUS agarose beads (Santa Cruz Biotechnology). […]
# HDAC1/2 [3] = assay: Subcellular fractionation, IP and Western blot in de-differentiated rat Schwann cells; format: cell-based
# Method: Purified primary rat Schwann cell cultures were obtained as described (ref. 5). Rat Schwann cells were then grown in proliferation medium: DMEM containing 10% Fetal calf serum (FCS, Gibco), 1:500 penicillin/streptomycin (Invitrogen), 4 μg/m1 crude GGF (bovine pituitary extract, Bioconcept), and 2 μM forskolin (Sigma), at 37° C. and 5% CO2/95% air. Schwann cell de-differentiation culture protocol was previously described (ref. 6). Briefly, Schwann cells were first growth-arrested in defined medium (DM, ref. 5) for 8 to 15 h, then 1 mM dbcAMP (Sigma) was added to induce differentiation. Cells were incubated in this medium for another 3 days. The medium was then changed to DM only without dbcAMP, and incubated in this medium for 3 days (differentiation mimicking adult Schwann cell stage). To induce de-differentiation, cells were then changed to proliferation medium and incubated in this medium for 3 days.
# Two 15-cm culture plates of confluent de-differentiated rat Schwann cells were used per IP. Cells were either treated with 0.6 μM Mocetinostat (HDAC1/2 inhibitor) or its vehicle for 3 days in de-differentiation medium. Cells were washed with PBS and submitted to subcellular fractionation to separate the nuclear from the cytoplasmic fractions. IPs were then carried out on each fraction nuclear and cytoplasmic, as described above. Immunoprecipitating antibodies: 2.5 μg of eEF1A1 (rabbit, Abcam, cat. # ab157455), Sox10 (rabbit, DCS Innovative Diagnostik-Systeme, cat. # 51058C01) or GFP (rabbit, Abcam, cat. # ab290) antibodies were used per IP. Rabbit anti-GFP antibody was used as negative control IP. Acetylation of eEF1A1 and co-immunoprecipitation of acetylated eEF1A with Sox10 were detected using EEF1A-pan (Acetyl-Lys41) primary antibody (rabbit, Assay Biotech, 1:1000, cat. # D12106). Co-immunoprecipitation of HDAC2 with eEF1A1 was detected using an HDAC2 antibody (mouse, Sigma, 1:1000, cat. # H2663). Light chain-specific goat anti-rabbit-HRP or anti-mouse-HRP secondary antibodies (Jackson ImmunoResearch) were used. Detection was done with Immobilon Western Chemiluminescent HRP Substrate (Millipore). Inputs of the IPs were assayed on lysates used for IPs. GAPDH (mouse, Gene Tex, 1:5000, cat. # GTX28245) and LaminA/C (mouse, Sigma, 1:2000, cat. # SAB4200236) antibodies were used to evaluate the efficiency of cytoplasmic and nuclear fractionation.
# crushed sciatic nerves = assay: Electron microscopy of crushed sciatic nerves, myelin thickness (g-ratio); format: in vivo, mouse; conditions: 10 mg/kg/day i.p. from 9 to 13 dpl, vs vehicle; for myelin sheath thickness: 10 mg/kg/day
# Method: Adult mice were treated with theophylline or vehicle as described above in Example 4 from 9 to 13 days post sciatic nerve crush lesion. Injured sciatic nerves were collected for morphological analysis by electron microscopy. Briefly, mice were killed with 150 mg/kg pentobarbital i.p. (Esconarkon; Streuli Pharma AG) and sciatic nerves were fixed in situ with 3% paraformaldehyde and 0.15% glutaraldehyde in 0.1 M phosphate buffer, pH 7.4. Fixed tissues were post-fixed in 2% osmium tetroxide, dehydrated through a graded acetone series as described previously (ref. 7), and embedded in Spurr's resin (Electron Microscopy Sciences). Ultrathin cross-sections (90-nm thick) were made, as described (ref. 7). All analyses were done at 5 mm distal to the lesion site. No contrasting reagent was applied. Images were acquired using a Philips CM 100 BIOTWIN equipped with a Morada side-mounted digital camera (Olympus). The g-ratio of at least 50 axons was measured per animal and 3 animals per group (theophylline or vehicle) were used at 14 dpl. At 30 dpl, only 2 animals were used (more animals will be added at 30 days post lesion for statistical analyses).
# HDAC2 [4] = molecular target: T1, HDAC2 (Mus musculus, UniProt P70288); assay: Western blot of sciatic nerve lysates after sciatic nerve crush lesion; format: in vivo; conditions: 10 mg/kg/day i.p. from 9 to 13 dpl, 14 and/or 30 dpl, vs vehicle
# T1 construct: from tissue; host or cells: mouse sciatic nerve (adult after crush; P4 control and Schwann-cell HDAC1/2 dKO pups)
# Method: Adult mice were treated with intraperitoneal injection of 10 mg/kg/day theophylline or its vehicle from 9 to 13 days post sciatic nerve crush lesion. At 14 days post lesion (dpl) the injured sciatic nerve (“crush”) was collected, as well as the same region of the contralateral nerve (“contra”) as internal control for each animal. After perineurium removal, sciatic nerves were frozen in liquid nitrogen, pulverized with a chilled mortar and pestle, lysed in RIPA buffer for 15 min on ice, and centrifuged to pellet debris. Supernatants were collected, and protein concentration was determined by Lowry Protein assay (Bio-Rad Laboratories). Sciatic nerves were submitted to SDS-PAGE and analysed by Western blot. Primary antibodies: HDAC2 (mouse, 1:1000, Sigma, cat. # H2663), Sox10 (rabbit, 1:250, DCS Innovative Diagnostik-Systeme, cat. # SI058C01), GAPDH (glyceraldehyde-3-phosphate-dehydrogenase, mouse, 1:5000, Genetex, cat. # GTX28245), P0 (chicken, 1:1000, Ayes Labs, cat. # PZO), Krox20 (rabbit, 1:500, Axxora, cat. # CO-PRB-236P-100). All secondary antibodies were from Jackson ImmunoResearch: light chain-specific goat anti-mouse-HRP (horse radish peroxidase) and goat anti-rabbit-HRP, and heavy chain-specific goat anti-chicken-HRP.
# [5] = system: mice after sciatic nerve crush lesion; assay: Rotarod after sciatic nerve crush lesion; format: in vivo, mouse; conditions: 15 rpm, 10 mg/kg/day i.p. from 9 to 13 dpl, vs vehicle
# Method: (§1) Adult mice were treated with theophylline or vehicle as described above in Example 4 from 9 to 13 days post sciatic nerve crush lesion (carried out as described above in Example 1). Mice were placed three times on the Rotarod apparatus at a fixed speed of 15 rpm to test balance and motor coordination, at 14 and 30 dpl. The duration of each trial was limited to 600 s, and trials were separated by a 30 min recovery period. Latency to fall from the rotating beam was recorded and the average of the three trials was used for quantification. Recovery of sensory function was tested at 14 and 30 dpl by toe pinch test: each toe of the rear foot on the right side (lesioned side) was pinched with equal pressure applied by the same experimenter using flat tip forceps. Immediate withdrawal was recorded as functional sensitivity of the pinched toe. […] All mice were between 3 and 4 months old. The experimenter was blinded regarding the treatment that mice received.
# multiple sclerosis = assay: Contemplative combination treatment of MS patients; format: in vivo, human
# Method: In this contemplative example, a group of female and male patients suffering from MS receiving theophylline [250 mg/day] during 1 month in addition to the standard treatment of interferon-β1a.
# HDAC2 [6] = assay: Western blot of P4 sciatic nerve lysates of control and HDAC1/2 dKO mice; format: in vivo, mouse; conditions: control mice, 10 mg/kg s.c. once a day for 3 days from P1, nerves at P4
# Method: In P1 control and dKO mice (as described in Example 2), 10 mg/kg theophylline or its vehicle were injected subcutaneously once a day for 3 days. Sciatic nerves were collected at P4. After perineurium removal, sciatic nerves were frozen in liquid nitrogen, pulverized with a chilled mortar and pestle, lysed in RIPA buffer for 15 min on ice, and centrifuged to pellet debris. Supernatants were collected, submitted to SDS-PAGE and analysed by Western blot. Primary antibodies: HDAC2 (mouse, 1:1000, Sigma, cat. # H2663), Sox10 (rabbit, 1:250, DCS Innovative Diagnostik-Systeme, cat. # SI058C01), GAPDH (glyceraldehyde-3-phosphate-dehydrogenase, mouse, 1:5000, Genetex, cat. # GTX28245), P0 (chicken, 1:1000, Ayes Labs, cat. # PZO). Secondary antibodies were from Jackson ImmunoResearch: light chain-specific goat anti-mouse-HRP (horse radish peroxidase) and goat anti-rabbit-HRP, and heavy chain-specific goat anti-chicken-HRP.
# HDAC2 [7] = molecular target: T1, HDAC2; assay: Immunofluorescence of lysolecithin lesion site in dorsal funiculus of spinal cord; format: in vivo; conditions: 14 dpl, treated 9 to 13 days post lysolecithin lesion, vs vehicle
# Method: A focal demyelinating lesion was induced in the dorsal funiculus of the spinal cord of adult mice by injection of lysolecithin (1 μl at 1%), as described (ref. 9). This demyelination model is used as a model of multiple sclerosis lesion and is well characterized, the kinetics of demyelination and remyelination being well known. Mice were treated as described above in Example 4 with theophylline or vehicle for 4 days from 9 to 13 days post lysolecithin lesion, when OLP start to re-differentiate to remyelinate demyelinated axons. Mice were killed with 150 mg/kg pentobarbital i.p. (Esconarkon; Streuli Pharma AG) and perfused with 4% PFA. Spinal cords were collected, post-fixed for 2 h in 4% PFA, incubated in 30% sucrose overnight at 4° C., embedded in OCT compound and stored at −80° C. Spinal cords were then processed as sciatic nerves for immunofluorescence, as described in Example 2. Primary antibodies: HDAC2 (rabbit, 1:200, Santa Cruz Biotechnology, cat. # sc-7899), CC1 (mouse, 1:200, Calbiochem/Millipore, cat. # OP80), MBP (rat, 1:500, Serotec, cat. # MCA409S), Sox10 (rabbit, 1:250, DCS Innovative Diagnostik-Systeme, cat. # SI058C01).
# [8] = system: lysolecithin demyelinating lesion of the spinal cord; assay: Electron microscopy of spinal cord after lysolecithin lesion (remyelination); format: in vivo, mouse; conditions: 14 and 30 dpl, treated 9 to 13 days post lysolecithin lesion, vs vehicle
# Method: For electron microscopy analyses, adult mice were submitted to a lysolecithin lesion and treated with theophylline or vehicle, as described above in Example 8. Mice were killed at 14 dpl or 30 dpl with 150 mg/kg pentobarbital i.p. (Esconarkon; Streuli Pharma AG) and perfused with 3% PFA and 0.15% glutaraldehyde in 0.1 M phosphate buffer, pH 7.4. Spinal cords were collected and processed as described above in Example 6.
# [9] = system: mice after sciatic nerve crush lesion; assay: Toe pinch test after sciatic nerve crush lesion; format: in vivo, mouse; conditions: 10 mg/kg/day i.p. from 9 to 13 dpl, vs vehicle
# Method: as §1
# [10] = 0.6 μM for 3 days in de-differentiation medium
# T1 sequence (P70288 whole entry): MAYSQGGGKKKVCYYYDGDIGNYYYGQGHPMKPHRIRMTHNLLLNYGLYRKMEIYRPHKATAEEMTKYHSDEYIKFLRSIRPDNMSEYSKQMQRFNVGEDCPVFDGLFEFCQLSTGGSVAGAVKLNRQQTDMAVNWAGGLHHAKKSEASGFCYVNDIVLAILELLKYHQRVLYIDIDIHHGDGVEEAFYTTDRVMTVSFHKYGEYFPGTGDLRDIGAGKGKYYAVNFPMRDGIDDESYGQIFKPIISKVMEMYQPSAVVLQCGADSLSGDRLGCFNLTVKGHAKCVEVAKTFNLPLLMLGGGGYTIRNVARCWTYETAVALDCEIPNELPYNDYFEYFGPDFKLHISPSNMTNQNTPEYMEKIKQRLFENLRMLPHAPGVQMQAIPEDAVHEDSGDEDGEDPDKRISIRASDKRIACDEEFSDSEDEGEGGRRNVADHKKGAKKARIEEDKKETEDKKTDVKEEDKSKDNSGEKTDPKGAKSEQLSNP
smiles,measurement,setting,value
Nc1ccccc1NC(=O)c1ccc(CNc2nccc(-c3cccnc3)n2)cc1 [Mocetinostat],acetylated eEF1A in mature oligodendrocytes (CC1+),HDAC1/2 [1],robust increase; also recorded: accumulation of Ace-eEF1A in the nuclei of oligodendrocytes
same,abundance of eEF1A1 peptides after immunoprecipitation with anti-acetyl-lysine antibody,HDAC1/2 [2],increased abundance
same,Sox10 expression in the nuclear compartment,HDAC1/2 [3]; [10],strong decrease
same,Sox10 localization,HDAC1/2 [3]; [10],partially re-localized from the nuclear to the cytoplasmic compartment
same,acetylated eEF1A1 levels,"HDAC1/2 [3]; 0.6 μM for 3 days in de-differentiation medium, vs vehicle, predominantly nuclear",strong increase
same,interaction (co-immunoprecipitation) of acetylated eEF1A with Sox10,"HDAC1/2 [3]; 0.6 μM for 3 days, nuclear and cytoplasmic fractions",potentiated
Cn1c(=O)c2[nH]cnc2n(C)c1=O [theophylline],g-ratio (axon diameter : [axon+myelin] diameter),crushed sciatic nerves; 5 mm distal to lesion site,significantly lower
same,myelin sheath thickness,crushed sciatic nerves; 14 dpl,thicker myelin sheath
same,myelin sheath thickness,crushed sciatic nerves; 30 dpl (only 2 animals),presumably also at 30 dpl; also recorded: thicker
same,HDAC2 expression levels,HDAC2 [4],increased levels
same,Krox20 levels,HDAC2 [4],high increase; also recorded: increased levels
same,P0 (myelin protein zero) levels,HDAC2 [4],high increase; also recorded: increased levels
same,Sox10 levels,HDAC2 [4],high increase; also recorded: increased levels
same,performance on the Rotarod (motor function and coordination),[5]; 14 dpl,higher performances
same,performance on the Rotarod (motor function and coordination),[5]; 30 dpl,perform as well as theophylline-treated mice
same,disease progression,multiple sclerosis; 250 mg/day during 1 month in addition to standard interferon-β1a,in some cases complete stop of disease progression
same,remission following an attack (exacerbation),"multiple sclerosis; 250 mg/day during 1 month in addition to standard interferon-β1a, vs standard treatment only",significantly faster remission
same,life quality,multiple sclerosis; combination therapy with interferon-β1a,substantially increased life quality
same,HDAC2 levels,HDAC2 [6],increases; also recorded: increased levels
same,P0 levels,HDAC2 [6],increases; also recorded: increased levels
same,Sox10 levels,HDAC2 [6],increases; also recorded: increased levels
same,"HDAC2 expression in the lesion site of the spinal cord, including differentiated oligodendrocytes (CC1-positive)",HDAC2 [7],strongly increases; also recorded: higher amounts of HDAC2
same,Sox10 levels in the lesion site,HDAC2 [7],increases; also recorded: higher levels of Sox10
same,myelin basic protein (MBP) levels in the lesion site,HDAC2 [7],increases; also recorded: higher myelin content
same,remyelination of the lesioned spinal cord,[8],strongly enhanced
same,"toe pinch test, recovery of sensory function",[9]; 14 dpl,recovered the sensitivity of more toes
same,"toe pinch test, recovery of sensory function",[9]; 30 dpl,vehicle-treated mice had not yet recovered their sensory function as well as theophylline-treated mice
